Measured values published in patent US9260384B2, “Urea compounds and use thereof for inhibiting apoptosis” (Chinese PLA General Hospital, priority 2010, dated 2016).

Experiments:
[1] = test system: TG-induced cardiomyocytes apoptosis; assay: Protection against TG-induced cardiomyocyte apoptosis (MTT); type: cell-based, Wistar sucking mice
Protocol: The isolation and culture of cardiomyocytes were performed by referring to the differential adhesion method (Kreider, A. Messing, H. Doan, S. U. Kim, R. P. Lisak and D. E. Pleasure, Enrichment of Schwann cell cultures from neonatal rat sciatic nerve by differential adhesion, Brain Res 2 (1981), pp. 433-444). Wistar sucking mice newborn within 24 h were used, sterilized at skin of ventrum with iodine tincture and ethanol, subjected to thoracotomy using scissors at subxiphoid median line with a deviation to left, heart was taken out after slant thoracotomy and placed in PBS precooled with ice; the heart was softly blown and beaten with 0.01M PBS to remove blood cells and other tissues, then cut into pieces with 0.5 mm^3 size, washed with 0.01 M PBS repeatedly for 2-3 times; the pieces were placed in conical flask, added with 4 ml of 0.125% pancretin, 1 ml of 0.1% collagenase II (final concentrations separately being 0.1% and 0.02%), shaken in 37° C. water bath for 10 min, the supernatant was discarded; then 4 ml of 0.125% pancretin and 1 ml of 0.1% collagenase II again, shaken in 37° C. water bath for digestion for 10 min, the supernatant was sucked and transferred to a centrifuge tube, and the supernatant was added with DMEM containing 10% FBS to terminate digestion; the step of shaking and digestion in water bath was repeated for 3-4 times, until the tissue pieces were completely digested; the collected cell suspension was centrifuged under 1000 rpm for 10 min, the supernatant was removed, then a culture medium was added for resuspension; the resuspended cells were inoculated in a cell culture flask, placed in CO2 incubator at 37° C. for incubation for 1.5 h, then the culture medium was sucked out, countered under microscope, then DMEM culture medium containing 10% FBS was used to adjust cell density, inoculated in an amount of 1×10^4 to a 96-well plate, placed in 5% CO2 incubator at 37° C. for 24 h, then half medium was replaced, a culture medium containing 0.1% Brdu was supplementally added; then the medium was replaced once per 48 h, and primary cardiomyocytes were obtained after 4 days of cultivation.
The isolated primary culture of cardiomyocytes was inoculated in an amount of 10^4 cells per well to a 96-well plate, and the volume of each well was 100 ul (marginal wells were filled with sterile PBS). […] The optical density (OD) value of each well was measured at wavelength of 550 nm by enzyme-linked immunoassay instrument, and each well was repeatedly measured for 5 times and the results were recorded. […]

primary cardiomyocytes = assay: Measurement of cell inhibition rate (MTT) on normal primary cardiomyocytes; type: cell-based, neonatal Wistar rats
Protocol: The isolation and culture of cardiomyocytes were performed by referring to the differential adhesion method (Kreider, A. Messing, H. Doan, S. U. Kim, R. P. Lisak and D. E. Pleasure, Enrichment of Schwann cell cultures from neonatal rat sciatic nerve by differential adhesion, Brain Res 2 (1981), pp. 433-444). […]
The isolated primary culture of cardiomyocytes was inoculated in an amount of 10^4 cells per well to a 96-well plate, and the volume of each well was 100 ul (marginal wells were filled with sterile PBS). […] The optical density (OD) value of each well was measured at wavelength of 550 nm by enzyme-linked immunoassay instrument, and each well was repeatedly measured for 5 times and the results were recorded.

## C/C=C(/C)C(=O)O[C@H]1C(C)=C2[C@H]([C@@H]1OC(=O)CCCCCCC)[C@@](C)(OC(C)=O)C[C@H](OC(=O)CCC)[C@@]1(O)[C@H]2OC(=O)[C@@]1(C)O [TG, thapsigargin, reference compound]
[1]; TG alone 0.4 uM (apoptosis inducer)
  Cardiomyocyte survival rate (%): 59 ± 1.1%

## O=C(/C=C/c1ccccc1)NC(NC(=O)Nc1cccc2cccnc12)C(Cl)(Cl)Cl (stereo not shown) [Example 1, (2E)-3-phenyl-N-[1-(8-quinolylamino)formylamino-2,2,2-trichloroethyl]-2-acrylamide]
Primary cardiomyocytes; Cardiomyocyte, 30 μM compound, 48 h, MTT, cell survival rate = 1 − cell inhibition rate
  inhibition at 30 µM: 9.57 ± 1.62%
Primary cardiomyocytes; Cardiomyocyte, 300 μM compound, 48 h, MTT, cell survival rate = 1 − cell inhibition rate
  inhibition at 300 µM: 7.78 ± 3.42%
Primary cardiomyocytes; concentration within 300 μM
  effect on survival rate of normal cardiomyocytes: no effect

## O=C(/C=C/c1ccccc1)NC(NC(=O)Nc1cccc2cccnc12)C(Cl)(Cl)Cl (stereo not shown) [Example 5, (2E)-3-phenyl-N-[1-(8-quinolylamino)formylamino-2,2,2-trichloroethyl]-2-acrylamide]
[1]; TG 0.4 uM + compound 0.3 μM, pretreatment 30 min before TG
  Cardiomyocyte survival rate (%): 79.3 ± 4.6%
[1]; TG 0.4 uM + compound 1 μM, pretreatment 30 min before TG
  Cardiomyocyte survival rate (%): 83.8 ± 8.3%
[1]; TG 0.4 uM + compound 3 μM, pretreatment 30 min before TG
  Cardiomyocyte survival rate (%): 84.2 ± 1.1%
